Experimental data as given in patent US11001581B2, “Compounds which inhibit RNA polymerase, compositions including such compounds, and their use” (THE JOHNS HOPKINS UNIVERSITY, priority 2014, dated 2021).

Columns and labels:
RPA194 = assay: Determination of RPA194 IC50 (immunofluorescence image analysis of RPA194 degradation); type: cell-based; conditions: U2OS cells, 3 h treatment, 0.1-10 μM, fold change to control, three-parameter fit
Source text: (§1) Immunofluorescence, Epifluorescence Microscopy and Image Analysis. […] Cells were stained for RPA194 (C-1, Santa Cruz Biotechnology) and NCL (4E2, Abeam). […] DNA was counterstained with DAPI (Invitrogen). Images were captured using Axioplan2 fluorescence microscope (Zeiss) equipped with AxioCam HRc CCD-camera and AxioVision 4.5 software using EC Plan-Neofluar 20×/0.75 objective (Zeiss). […] Hue saturation and brightness range were defined individually for RPA194 and NCL. All values were normalized to the DNA content. Two-four fields of each treatment were recorded and quantification was based on an average of 200 cells.
(§2) Determination of RPA194 and NCL IC50. U2OS cells grown on coverslips were treated the compounds at 0.1, 0.5, 1, 5 and 10 μM, or vehicle (DMSO)-treated for 3 h and fixed and stained as above. All compounds, except when indicated, were tested in duplicate independent biological experiments Immunostaining for NCL and RPA194 was conducted separately, and cells were counterstained for DNA. Two-four fields of each treatment were captured using epifluorescence microscopy as above, and contained on average of 200 cells/analysis. […] Hue saturation and brightness range were defined individually for RPA194 and NCL, and all values were normalized to the DNA content.

NCL = assay: Determination of NCL IC50 (loss of NCL nucleolar intensity, immunofluorescence image analysis); type: cell-based; conditions: U2OS cells, 3 h treatment, 0.1-10 μM, fold change to control, three-parameter fit
Source text: as §1
as §2, with “U2OS cells grown on coverslips were treated the compounds at 0.1, 0.5, 1, 5 and 10 μM, or vehicle (DMSO)-treated for 3 h and fixed and stained as above.” left out

NCI60 cancer cell lines = conditions: earlier studies of the inventors; cited from earlier work
tumor burden = conditions: earlier studies of the inventors; cited from earlier work

Row | SMILES | IC50 (RPA194) [µM] | IC50 (NCL) [µM] | anticancer activity in NCI60 cancer cell lines (NCI60 cancer cell lines) | tumor burden in mouse xenograft assays (tumor burden)
1 | CN(C)C(C)(C)CNC(=O)c1cccn2c(=O)c3cc4ccccc4cc3nc12 [Compound 31, N-[2-(dimethylamino)-2-methyl-propyl]-12-oxo-12H-benzo[g]pyrido[2,1-b]quinazoline-4-carboxamide] | 0.16 | 0.14 |  | 
2 | CC(C)(N)CNC(=O)c1cccn2c(=O)c3cc4ccccc4cc3nc12 [Compound 30, N-(2-amino-2-methyl-propyl)-12-oxo-12H-benzo[g]pyrido[2,1-b]quinazoline-4-carboxamide] | 0.27 | 0.2 |  | 
3 | CCN(CC)C1CCN(C(=O)c2cccn3c(=O)c4cc5ccccc5cc4nc23)C1 (stereo not drawn) [Compound 19, 4-[3-(diethylamino)pyrrolidine-1-carbonyl]-12H-benzo[g]pyrido[2,1-b]quinazoline-12-one] | 32 | 11 |  | 
4 | CN1CC(NC(=O)c2cccn3c(=O)c4cc5ccccc5cc4nc23)C1 [Compound 29, N-(1-methylazetidin-3-yl)-12-oxo-12H-benzo[g]pyrido[2,1-b]quinazoline-4-carboxamide] | 0.9 | 0.47 |  | 
5 | O=C(NCCc1ccncc1)c1cccn2c(=O)c3cc4ccccc4cc3nc12 [Compound 37, 12-oxo-N-[2-(4-pyridyl)ethyl]-12H-benzo[g]pyrido[2,1-b]quinazoline-4-carboxamide] | 3.5 | > 100 |  | 
6 | CN(C)CCNC(=O)c1cccn2c(=O)c3cc4ccccc4cc3nc12 [BMH-21, 12H-Benzo[g]pyrido[2,1-b]quinazoline-4-carboxamide, N-[2(dimethylamino)ethyl]-12-oxo] |  |  | broad and potent anticancer activity | reduced tumor burden

The remaining molecules from weak to strong by IC50 (RPA194), led by results:

Row | IC50 (RPA194) [µM] | IC50 (NCL) [µM] | SMILES | anticancer activity in NCI60 cancer cell lines (NCI60 cancer cell lines) | tumor burden in mouse xenograft assays (tumor burden)
7 | 0.12 | 0.17 | C[C@H](N)CNC(=O)c1cccn2c(=O)c3cc4ccccc4cc3nc12 [Compound 35, N-[(2S)-2-aminopropyl]-12-oxo-12H-benzo[g]pyrido[2,1-b]quinazoline-4-carboxamide] |  | 
8 | 0.11 | 0.81 | C[C@@H](N)CNC(=O)c1cccn2c(=O)c3cc4ccccc4cc3nc12 [Compound 33, N-[(2R)-2-aminopropyl]-12-oxo-12H-benzo[g]pyrido[2,1-b]quinazoline-4-carboxamide] |  | 
9 | 0.1 | 0.1 | CC(N)CNC(=O)c1cccn2c(=O)c3cc4ccccc4cc3nc12 (stereo not drawn) [Compound 32, N-(2-aminopropyl)-12-oxo-12H-benzo[g]pyrido[2,1-b]quinazoline-4-carboxamide] |  | 
